Source: US20220380408A1, “COMPOSITIONS AND METHODS FOR INHIBITING NEOINTIMAL FORMATION” (University of Virginia Patent Foundation, priority 2019, published 2022)
“Also recorded” adds a separate entry of the source. Ends that are not written are not given here. * marks the point of attachment. Stearoyl = CCCCCCCCCCCCCCCCCC(=O)*

Columns and labels:
cyclin E [1] = biological target: T1, cyclin E (Homo sapiens, UniProt P24864); experiment: Peptide array (truncation array) probed with cyclin E protein; assay type: binding; design: made in house; conditions: based on mouse Cx43 sequence; cyclin E 10 μg/mL overnight
Excerpt: Peptide array. The C-terminus of the human Cx43 polypeptpide (Cx43-CT) is about 150 amino acids (a.a.) with a high abundance (>10%) of post-translationally modified sites (Aasen et al., 2018). This means that hundreds of combinations are required to delineate binding parameters. Using novel peptide array technology, the sites of interaction between connexin 43 (Cx43) and cyclin E were mapped. Immobilized peptide libraries corresponding to 25-residue regions of Cx43-CT were designed, synthesized, and nitrocellulose arrays generated. To test the requirement for phosphorylation, specific residues were replaced to mimic known protein interacting states (e.g., MAPK-Cx43 serines 255/262/279/282; see Johnstone et al. 2012). The role for phosphorylation was assayed in binding using single and multiple residue replacements. These included wild-type serine (S), native phospho-serine (pS), aspartate (D, phospho-mimic), or alanine (A, phospho-null) residues. Recombinant human cyclin E protein was generated for incubation with arrays (Johnstone et al. 2012). […] Signal was then detected using electrochemiluminescence (ECL) detection reagents as per manufacturer protocol (PIERCE™ brand, available from Thermo Fisher Scientific, Inc., Waltham, Mass., United States of America) and blots were scanned for analysis. […]

mouse carotid arteries = experiment: Mouse carotid ligation neointimal formation model; assay type: in vivo; conditions: for Neointimal/media Ratio (±SEM): carotid ligation, 200 μg peptide in pluronic, 2 weeks
Method: Mouse carotid surgeries. Carotid ligation and pluronic application surgeries were performed as described (Johnstone et al. 2009; Johnstone et al. 2012). Briefly, mice were anesthetized by isoflurane and the left common carotid artery was exposed and carefully freed from surrounding tissue. A 6/0 silk suture was run under the carotid artery distal to the bifurcation site and two consecutive, flat square knots were tied tight enough to restrict blood flow. Control mice were surgical controls, where carotid artery was exposed and freed of surrounding tissue as described above but no suture was applied. Following ligation either 35% F127 pluronic gel, CycliCx peptide (200 μg in pluronic; LDPAKDCGDQKYAY; SEQ ID NO: 1) or control peptide (200 μg in pluronic; AYFNGCSSPTAPLDP; SEQ ID NO: 3) was applied to the outside of the carotid wall and surgical wound closed. At 2 weeks after surgery, mice were euthanized with an intraperitoneal injection of 60-90 mg/kg pentobarbital. Mice were perfused with 4% paraformaldehyde (PFA) and both treated (left common) and control (right common) carotids removed and stored in 4% PFA overnight for whole mount analysis or immunosectioning. For in vivo cell proliferation studies, mice were preinjected with 5-ethynyl-2′-deoxyuridine (EDU) prior to surgery and carotids were removed post-treatment for whole mount or tissue cross section analysis of EDU incorporation into proliferating cells. For analysis of neointima formation in vessels, areas corresponding to the media (containing vascular smooth muscle cells (VSMC)), neointima (containing proliferating VSMC) and lumen (void area) were measured on Haemotoxylin and Eosin (H&E) stained cross sections of carotid vessels and analyzed by Image J, image analysis software. The ratio of media:neointima was calculated.
An exemplary CycliCx peptide (LDPAKDCGDQKYAY; SEQ ID NO: 1) was applied to the carotids of mice for 14 days after placement of a suture to induce neointimal formation (FIG. 4A). In both ligation only and ligation with peptide, extensive neointima formed. […] Effects were tested in both male and female mice, and no sex-specific differences were noted (FIG. 4B and Table 1).

[2] = test system: human saphenous vein tissues; experiment: Ex vivo human saphenous vein explant model (HUSVEM); assay type: cell-based; conditions: PDGF 50 ng/mL, 14 days, peptide 30 μM, everolimus 10 nM
Method: Ex vivo, human saphenous vein explant model (HUSVEM). The translational relevance of the peptides was assessed in an ex vivo, human saphenous vein explant model (HUSVEM) based on previously validated protocols (Baker et al. 1997; Dreifaldt et al. 2013; Loesch, Dashwood & Souza, 2006; George et al., 1996). Briefly, human veins were obtained as excess tissue from coronary artery bypass surgeries. The protocol was assessed by the Institutional Review Board (IRB) of the University of Virginia (Charlottesville, Va., United States of America), and no IRB protocol was required. Human saphenous veins were opened laterally, cut into 10 mm sections, and pinned with the endothelial side facing up on SYLGARD® brand silicone curing agent-coated plates in RMPI media containing 2% FBS. After 1 hour, cells were incubated with either control peptide or CycliCx peptide (30 μM; LDPAKDCGDQKYAY; SEQ ID NO: 1) or everolimus (10 nM; Sigma Aldrich) for a further 60 minutes, prior to adding PDGF (50 ng/mL). Media was changed daily with fresh media containing peptides or everolimus and PDGF. At the end of 14 days media was removed and tissues fixed in 4% PFA for 24 hours then washed in 70% ethanol, prior to embedding in 3% agarose. Samples were then processed by routine paraffin embedding and stained using hematoxylin and eosin and van Gieson stains. Comparisons of neointmal growth were made, where the uppermost layer of elastin was used to identify the start region for formed neointima. Neointimal areas were calculated across 10 serial sections from each tissue and averaged. Analysis of PDGF treated vessels to peptide and everolimus treated tissues were made.
An exemplary CycliCx peptide (LDPAKDCGDQKYAY; SEQ ID NO: 1) was applied to human saphenous veins in ex vivo preparations for 2 weeks in the presence of PDGF and compared to everolimus, an agent used in drug eluting stents.

[3] = test system: Human coronary artery smooth muscle cells; experiment: EDU proliferation by flow cytometry in cultured human coronary artery smooth muscle cells; assay type: cell-based; conditions: for proliferation (EDU incorporation, flow cytometry): hCASMC incubated with agent for 48 hours (PGPC 100 μg, POVPC 100 μg, PDGF 20 ng)
Method: (§1) Protein expression and interaction in cultured human coronary artery smooth muscle cells. Human coronary artery smooth muscle cells (Thermo Fisher Scientific, Inc., Waltham, Massachusetts, United States of America), were cultured until confluent in M231 media containing growth supplement (Thermo Fisher Scientific, Low Serum Growth Supplement Kit (LSGS) kit) as well as 20% fetal bovine serum (FBS). Prior to incubations, media was switched to low serum media (M231+2% FBS) for 3 days as previously described (Lohman et al., 2016). Cells were then incubated with oxidized phospholipids 1-palmitoyl-2-glutaroyl-sn-glycero-3-phosphorylcholine (PGPC, 100 μg) and 1-palmitoyl-2-oxovaleroyl-sn-glycero-3-phosphorylcholine (POVPC 100 μg), or the growth factor platelet derived growth factor beta (PDGF, 20 ng) as we have previously described (Johnstone et al. 2009; Johnstone et al. 2012) for 48 hours prior to harvesting and analysis for Western blotting and co-immunoprecipitation and EDU proliferation by flow cytometry as previously described (Johnstone et al. 2012). For peptide incubations, peptides were pre-incubated for 30 minutes with cells in fresh media prior to adding any further treatments.
However, the ability to bind with, and therefore activate, cyclin D was inhibited in the presence of PGPC (see FIG. 2A). […] Taken together, this identified Cx43 phosphorylation status as a molecular switch that controlled cellular proliferation (MAPK-Cx43) or quiescence (PKC-Cx43), a model that is depicted in see FIG. 2C.
(§2) Peptides representing sequences within the C-terminus of human Cx43, designed by peptide array, inhibited proliferation of human smooth muscle cells (see FIGS. 3A-3F). Cells were pretreated for 30 minutes with peptides, prior to incubation with PDGF for 2 days.

cyclin D = experiment: Co-immunoprecipitation of Cx43 with cyclin D in human coronary artery smooth muscle cells; assay type: cell-based; conditions: hCASMC
Method: as §1
However, the ability to bind with, and therefore activate, cyclin D was inhibited in the presence of PGPC (see FIG. 2A). […]

Cx43 = experiment: Western blot of Cx43 phosphorylation status in human coronary artery smooth muscle cells; assay type: cell-based; conditions: hCASMC
Method: as §1, §2

cyclin E [4] = biological target: T1, cyclin E; experiment: Co-immunoprecipitation of Cx43/cyclin E interaction in human SMC; assay type: cell-based; design: host or cells: human coronary artery smooth muscle cells; conditions: versus no peptide and scrambled peptide
Method: as §1
Peptides representing sequences within the C-terminus of human Cx43, designed by peptide array, inhibited proliferation of human smooth muscle cells (see FIGS. 3A-3F). […]

[5] = test system: human melanoma (A375-MA2); experiment: WST-1 (viability/MTT) assay of cancer cell proliferation, A375-MA2; assay type: cell-based; conditions: single treatment 30 μM at day 0; versus control peptide
Method: (§3) Two cancer cell lines originating from human melanoma (A375-MA2) and triple negative breast cancer (Hs578T) were used to assess the role of CycliCx in inhibiting proliferation. 500 cells per well were cultured in a 96-well plate containing 100 μl of medium. The next day (Day 0), 30 μM of CycliCx peptide or control peptide was added to the cells. Starting from Day 0, 10 μl of WST-1 reagent (viability/MTT) was added to each well and incubated for 75 minutes. Absorbance was measured at 450 nm. Data are presented in FIGS. 6B (A375-MA2) and 6C (Hs578T) as mean±SEM. p<0.05 by two way ANOVA.

[6] = test system: triple negative breast cancer (Hs578T); experiment: WST-1 (viability/MTT) assay of cancer cell proliferation, Hs578T; assay type: cell-based, human; conditions: single treatment 30 μM at day 0; versus control peptide
Method: as §3

T1 sequence (P24864 whole entry, the tested form may be a part): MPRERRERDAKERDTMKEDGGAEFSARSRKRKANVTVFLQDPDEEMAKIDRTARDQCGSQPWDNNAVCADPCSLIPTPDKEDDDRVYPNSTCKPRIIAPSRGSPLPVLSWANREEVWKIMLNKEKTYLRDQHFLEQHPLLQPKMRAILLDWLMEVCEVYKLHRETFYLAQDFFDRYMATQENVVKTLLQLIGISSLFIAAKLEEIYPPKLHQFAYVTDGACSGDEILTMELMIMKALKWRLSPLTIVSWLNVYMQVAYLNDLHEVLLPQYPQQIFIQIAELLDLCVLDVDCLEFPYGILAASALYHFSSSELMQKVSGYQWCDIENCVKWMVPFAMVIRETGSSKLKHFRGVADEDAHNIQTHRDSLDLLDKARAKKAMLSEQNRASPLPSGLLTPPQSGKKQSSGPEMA

With DPSKDCGDPKYAY the “sequence required for cyclin E binding in truncation-based array” value (cyclin E [1]) was “minimum sequence”.

In the case of “AYFNGCSSPTAPLDP [Control Pep, non-targeting control peptide, reference compound]”, the “Neointimal/media Ratio (±SEM)” value (mouse carotid arteries; female mice) is reported as 1.017 ± 0.3869, the “Neointimal/media Ratio (±SEM)” value (mouse carotid arteries; male mice) is reported as 0.6690 ± 0.1111 and the “neointimal formation in human saphenous veins” value [2] is reported as “neointima were identified”.

In the case of `CCCCCCCCCCCCCCCC(=O)OC[C@H](COP(=O)([O-])OCC[N+](C)(C)C)OC(=O)CCCC(=O)O` [PGPC, 1-palmitoyl-2-glutaroyl-sn-glycero-3-phosphorylcholine, reference compound], the “proliferation (EDU incorporation, flow cytometry)” value [3] is reported as “decreased proliferation” and the “ability of Cx43 to bind with, and therefore activate, cyclin D” value (cyclin D) is reported as “inhibited”.

In the case of `CO[C@H]1C[C@@H]2CC[C@@H](C)[C@@](O)(O2)C(=O)C(=O)N2CCCC[C@H]2C(=O)O[C@H]([C@H](C)C[C@@H]2CC[C@@H](OCCO)[C@H](OC)C2)CC(=O)[C@H](C)/C=C(\C)[C@@H](O)[C@@H](OC)C(=O)[C@H](C)C[C@H](C)/C=C/C=C/C=C/1C` [everolimus, reference compound], the “neointimal formation in human saphenous veins” value [2] is reported as “inhibited neointimal formation”.

With `CCCCCCCCCCCCCCCC(=O)OC[C@H](COP(=O)([O-])OCC[N+](C)(C)C)OC(=O)CCCC=O` [POVPC, 1-palmitoyl-2-oxovaleroyl-sn-glycero-3-phosphorylcholine, reference compound] the “proliferation (EDU incorporation, flow cytometry)” value [3] was “increased proliferation”.

In the case of “LDPSKDCGDPKYAY [pep3(mouse), CycliCx peptide with mouse Cx43 residues at positions 257 and 263]”, the “PKC-phosphorylated Cx43 species (western blot, pS368)” value (Cx43) is reported as “predominantly induced”, the “phosphorylation status of Cx43 (western blot)” value (Cx43) is reported as “altered” and the “phosphorylation status of Cx43 (western blot)” value (Cx43; listed as pep3) is reported as “significantly altered”. The “interactions with cyclin E (co-immunoprecipitation)” value (cyclin E [4]) was “significantly reduced”.

With “stearate-LDPAKDCGDQKYAY (Stearoyl-LDPAKDCGDQKYAY) [CycliCx]” the “EDU incorporation (proliferation) of human smooth muscle cells” value ([3]; peptide pretreatment 30 minutes, then PDGF for 2 days, versus PDGF alone or Scr peptide) was “reduced”, the “Neointimal/media Ratio (±SEM)” value (mouse carotid arteries; female mice) was 0.0060 ± 0.0379 and the “Neointimal/media Ratio (±SEM)” value (mouse carotid arteries; male mice) was 0.0110 ± 0.0055. For the same molecule, the “neointimal formation induced by suture ligation” value (mouse carotid arteries; mouse carotid, peptide applied for 14 days) was “completely inhibited; also recorded: prevented”, the “neointimal formation in human saphenous veins” value [2] was “inhibited neointimal formation; also recorded: completely inhibited” and the “proliferation of A375-MA2 cells” value [5] was “significantly inhibit proliferation”. For the same molecule, the “proliferation of Hs578T cells” value [6] was “significantly inhibit proliferation”.

B1: platelet derived growth factor beta (protein, UniProt P01127 82-190, looked up)
Platelet-derived growth …: SLGSLTIAEPAMIAECKTRTEVFEISRRLIDRTNANFLVWPPCVEVQRCSGCCNNRNVQCRPTQVQLRPVQVRKIEIVRKKPIFKKATVTLEDHLACKCETVAAARPVT
notes: growth factor promoting MAPK phosphorylation of Cx43
B1 was tested, and the “proliferation (EDU incorporation, flow cytometry)” value [3] was “increased proliferation”.
